# Results published in patent publication US10196389B2, “One class of pyrazolone compounds and use thereof” (SHANGHAI INSTITUTE OF MATERIA MEDICA, CHINESE ACADEMY OF …, priority 2014, dated 2019).
# Test system: AMPK and ACC phosphorylation on SD rat primary hepatocytes
# Assay: AMPK and ACC phosphorylation on SD rat primary hepatocytes (western blot)
# Assay type: cell-based
# Details: primary hepatocytes of SD rats, different concentrations, FIG. 4
# Protocol: (§1) 2. Experimental principle: Small molecule compounds allosterically activate AMPK and cause the phosphorylation of substrate acetyl-CoA carboxylase (ACC) at Ser-79-site.
# (§2) 3. Detection reagents: AMPK, phospho-AMPK (T172), phospho-ACC (S79), and total ACC antibodies were purchased from Cell Signaling Technology.
# (§3) 1) The cells were exchanged into serum-free medium and starved for two hours, and compounds were added to treat (in 0.4% DMSO) for 1 hour. The cells to be harvested were washed with PBS once. 1×SDS gel loading buffer (50 mM Tris (pH6.8), 100 mM DTT, 2% SDS, 10% glycerol, 0.1% bromophenol blue) was added to lysis cells (24 well plates, […] per well).
# (§4) 2) The sample was heated at 100° C. for 10 minutes and then centrifuged at 12000 g for 10 minutes. The supernatant was subjected to SDS-PAGE electrophoresis under following condition: spacer gel: 70 volts, and separation gel: 90 volts.
# (§5) 3) After electrophoresis, the proteins were transferred onto nitrocellulose membrane using Biorad wet electrical transduction system. After the desired band was cut, the strips were blocked in a blocking solution (TBST, containing 5% BSA) for 1 hour at room temperature. The strips were place in a solution containing the primary antibody and incubated overnight at 4° C.
# (§6) 4) On next day, the target band was placed in TBST and washed at room temperature for 10 minutes (3 times). […]
SMILES,AMPK activation,phosphorylation of ACC
COc1ccc(CNC(=O)c2ccc(CN3C=C4C(=O)N(c5ccc(F)c(C(F)(F)F)c5)N=C4CC3)cc2)cc1OC [ZM-1],activate AMPK,upregulate phosphorylation of ACC in a concentration or gradient dependent manner

# Test system: AMPK and ACC phosphorylation on L6 myotubes
# Assay: AMPK and ACC phosphorylation on L6 myotubes (western blot)
# Assay type: cell-based
# Details: L6 muscle cells treated for 1 hour, FIGS. 2A and 2B
# Protocol: as §1, §2, §3, §4, §5, §6
SMILES,AMPK activation at the cellular level,downstream phosphorylation levels of ACC
COc1ccc(CNC(=O)c2ccc(CN3C=C4C(=O)N(c5ccc(F)c(C(F)(F)F)c5)N=C4CC3)cc2)cc1OC [ZM-1],dose-dependently activated,increased accordingly

# Target: T1, human AMPK (α2β1γ1) (Homo sapiens, UniProt P54619+P54646+Q9Y478)
# T1 construct: made in house; host or cells: E. coli
# T1 sequence (P54646 whole entry): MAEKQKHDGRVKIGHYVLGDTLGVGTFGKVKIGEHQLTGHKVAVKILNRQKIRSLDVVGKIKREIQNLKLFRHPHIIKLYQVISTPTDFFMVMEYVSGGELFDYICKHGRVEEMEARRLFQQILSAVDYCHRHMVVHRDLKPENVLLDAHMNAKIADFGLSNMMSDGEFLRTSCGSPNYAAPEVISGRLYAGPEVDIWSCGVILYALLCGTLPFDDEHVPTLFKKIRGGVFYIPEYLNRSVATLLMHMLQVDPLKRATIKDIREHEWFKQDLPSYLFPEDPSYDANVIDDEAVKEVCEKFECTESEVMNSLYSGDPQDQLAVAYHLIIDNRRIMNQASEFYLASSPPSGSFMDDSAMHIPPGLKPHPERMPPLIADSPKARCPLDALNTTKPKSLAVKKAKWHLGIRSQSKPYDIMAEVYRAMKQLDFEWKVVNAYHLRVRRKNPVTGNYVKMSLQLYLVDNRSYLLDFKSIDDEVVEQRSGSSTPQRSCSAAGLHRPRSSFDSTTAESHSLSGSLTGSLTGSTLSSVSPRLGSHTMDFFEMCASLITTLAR
# T1 sequence (Q9Y478 whole entry): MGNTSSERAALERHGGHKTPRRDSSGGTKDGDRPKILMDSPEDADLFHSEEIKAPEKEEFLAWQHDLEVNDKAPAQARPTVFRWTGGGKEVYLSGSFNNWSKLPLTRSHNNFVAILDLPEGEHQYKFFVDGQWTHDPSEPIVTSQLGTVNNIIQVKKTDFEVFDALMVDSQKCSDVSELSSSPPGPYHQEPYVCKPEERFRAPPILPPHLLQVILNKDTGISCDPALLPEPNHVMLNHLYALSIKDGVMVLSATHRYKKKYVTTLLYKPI
# T1 sequence (P54619 whole entry): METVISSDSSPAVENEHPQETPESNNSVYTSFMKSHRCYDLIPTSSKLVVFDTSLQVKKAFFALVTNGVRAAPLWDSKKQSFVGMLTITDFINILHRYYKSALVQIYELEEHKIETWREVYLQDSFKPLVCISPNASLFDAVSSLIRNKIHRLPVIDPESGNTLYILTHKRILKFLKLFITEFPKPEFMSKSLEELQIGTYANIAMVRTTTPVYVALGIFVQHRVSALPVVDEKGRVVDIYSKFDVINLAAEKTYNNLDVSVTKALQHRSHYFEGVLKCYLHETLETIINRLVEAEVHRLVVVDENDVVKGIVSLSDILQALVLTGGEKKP
# Assay: AMPK (α2β1γ1) activation at molecular level, HTRF KinEASE-STK S1 kinase assay
# Assay type: biochemical
# Details: Table 1 and FIG. 1
# Protocol: 1. Purpose of the experiment: To screen small molecule compounds that can activate AMPK (α2β1γ1).
# 2. Principle of the experiment: The peptide as substrate contains sites which can be AMPK phosphorylated. One terminal of the peptide is linked with biotin in the reaction system (containing 2 mM MgCl2, 400 μM DTT, 160 nM substrate peptide, 4 μM ATP and 1.6 nM AMPK). In the biotinylated terminal, biotin can link with streptavidin-XL665 (acceptor) so as to complete the labeling. After 45 minute of phosphorylation reaction, the phosphorylated substrate (i.e., product) can bind to an antibody (labeled Donor) which recognizes the phosphorylating site, and the biotin on the other terminal can linked to streptavidin-XL665 (acceptor) so that the resulting FRET signal can be detected with PE Evision. The final AMPK activity is expressed as a ratio of the 665 nm wavelength reading to the 615 nm wavelength reading (665 nm/615 nm).
# 3. Detection reagent: The human AMPK (α2β1γ1) protein was obtained by expression using an E. coli expression system and purification. HTRF KinEASE-STK S1 kit (purchased from Cisbio's); ATP (purchased from Sigma).
# 1) 200 nM AMPK (α2β1γ1) protein was incubated with 200 nM CaMKKβ at 30° C. for 4 hours in water bath to completely phosphorylate AMPK.
# 2) The enzyme reaction system (2 mM MgCl2, […], 160 nM substrate peptide, 4 µM ATP, and 1.6 nM AMPK) was prepared by using a white shallow plate purchased from PE. The reaction was reacted at 30° C. for 45 minutes. Phosphorylated recognizing peptides of the antibody and the XL665 Detection buffer were added and the mixture was incubated at room temperature for 3 hours before the signals were detected.
row,SMILES,allosteric activation of AMPK in molecular level
1,COc1ccc(CNC(=O)c2ccc(CN3C=C4C(=O)N(c5ccc(F)c(C(F)(F)F)c5)N=C4CC3)cc2)cc1OC [ZM-1],significantly and allosterically activate AMPK

# Same assay, conditions: activation of human AMPK (α2β1γ1), 4 μM ATP, 45 min at 30° C.
SMILES,Activation ratio (Fold),EC50 [µM]
COc1cc(CNC(=O)c2ccc(CN3C=C4C(=O)N(c5ccc(F)c(C(F)(F)F)c5)N=C4CC3)cc2)cc(OC)c1OC [ZM-11],3.5,7.5
CCOc1ccc(CNC(=O)c2ccc(CN3C=C4C(=O)N(c5ccc(F)c(C(F)(F)F)c5)N=C4CC3)cc2)cc1OC [ZM-23],3.0,5.4
O=C(NCc1ccccc1)c1ccc(CN2C=C3C(=O)N(c4ccc(F)c(C(F)(F)F)c4)N=C3CC2)cc1 [ZM-8],3.0,8.6
COc1cc(CNC(=O)c2ccc(CN3C=C4C(=O)N(c5ccc(F)c(C(F)(F)F)c5)N=C4CC3)cc2)ccc1O [ZM-30],2.7,8.6
O=C(NCC1CCCCC1)c1ccc(CN2C=C3C(=O)N(c4ccc(F)c(C(F)(F)F)c4)N=C3CC2)cc1 [ZM-15],2.2,5.8
COc1ccc(CNC(=O)c2ccc(CN3C=C4C(=O)N(c5ccc(S(N)(=O)=O)cc5)N=C4CC3)cc2)cc1OC [ZM-17],2.1,9.5
O=C(NCc1cccc2c1OCO2)c1ccc(CN2C=C3C(=O)N(c4ccc(F)c(C(F)(F)F)c4)N=C3CC2)cc1 [ZM-13],2.5,3.3
COc1ccc(CNC(=O)c2ccc(CN3C=C4C(=O)N(c5ccc(F)c(C(F)(F)F)c5)N=C4CC3)c(C)c2)cc1OC [ZM-19],2.6,5.6
O=C(NCc1ccc(OC(F)F)c(OC(F)F)c1)c1ccc(CN2C=C3C(=O)N(c4ccc(F)c(C(F)(F)F)c4)N=C3CC2)cc1 [ZM-31],3.1,5.4
[2H]C([2H])([2H])Oc1ccc(CNC(=O)c2ccc(CN3C=C4C(=O)N(c5ccc(F)c(C(F)(F)F)c5)N=C4CC3)cc2)cc1OC [ZM-34],2.1,6.3
COc1ccc(CNC(=O)c2ccc(CN3CCC4=NN(c5ccc(F)c(C(F)(F)F)c5)C(=O)C4(C)C3)cc2)cc1OC (stereo not drawn) [ZM-33],2.7,7.8
COc1cc(F)c(CNC(=O)c2ccc(CN3C=C4C(=O)N(c5ccc(F)c(C(F)(F)F)c5)N=C4CC3)cc2)cc1OC [ZM-20],2.8,4.4
COc1ccc(C2(NC(=O)c3ccc(CN4C=C5C(=O)N(c6ccc(F)c(C(F)(F)F)c6)N=C5CC4)cc3)CC2)cc1OC [ZM-28],2.6,3.2
COc1cc(CNC(=O)c2ccc(CN3C=C4C(=O)N(c5ccc(F)c(C(F)(F)F)c5)N=C4CC3)cc2)ccc1OC(F)F [ZM-27],2.3,5
CCOc1ccc(CNC(=O)c2ccc(CN3CCc4c(c(=O)n(-c5ccc(F)c(C(F)(F)F)c5)n4C)C3)cc2)cc1OC [ZM-24],2.8,2.5
C[C@@H](NC(=O)c1ccc(CN2C=C3C(=O)N(c4ccc(F)c(C(F)(F)F)c4)N=C3CC2)cc1)c1ccccc1 [ZM-14],2.5,9.7
COc1ccc(CNC(=O)c2ccc(CN3C=C4C(=O)N(c5ccc(F)c(C(F)(F)F)c5)N=C4CC3)cc2)cc1OC [ZM-1],3.3,2.1
CCOc1cc(CNC(=O)c2ccc(CN3CCc4c(c(=O)n(-c5ccc(F)c(C(F)(F)F)c5)n4C)C3)cc2)ccc1OC [ZM-26],2.3,3

SMILES,Activation ratio (Fold),EC50 [µM]
COc1ccc(C(C)(C)NC(=O)c2ccc(CN3C=C4C(=O)N(c5ccc(F)c(C(F)(F)F)c5)N=C4CC3)cc2)cc1OC [ZM-21],2.2,4
COc1ccc(CNC(=O)c2cccc(CN3C=C4C(=O)N(c5ccc(F)c(C(F)(F)F)c5)N=C4CC3)c2)cc1OC [ZM-7],2.7,4.6
COc1ccc(CNC(=O)c2ccc(CN3C=C4C(=O)N(c5nc6ccccc6s5)N=C4CC3)cc2)cc1OC [ZM-18],2.8,6.3
"COC(=O)c1ccc(CN2C=C3C(=O)N(c4ccc(F)c(C(F)(F)F)c4)N=C3CC2)cc1 [ZM-2, Methyl 4-((2-(4-fluoro-3-(trifluoromethyl)phenyl)-3-oxo-6,7-dihydro-2H-pyrazolo[4,3-c]pyridin-5(3H)-yl)methyl)benzoic acid]",–,5.8
COc1ccc(CNC(=O)c2ccc(CN3C=C4C(=O)N(c5cccc(C(F)(F)F)c5)N=C4CC3)cc2)cc1OC [ZM-16],3.2,5.6
O=C(NCc1ccc2c(c1)OCO2)c1ccc(CN2C=C3C(=O)N(c4ccc(F)c(C(F)(F)F)c4)N=C3CC2)cc1 [ZM-12],3.0,5
COc1ccc(CNC(=O)c2ccc(CN3C=C4C(=O)N(c5ccc(F)c(C(F)(F)F)c5)N=C4CC3)cc2)cc1OC(F)F [ZM-32],2.4,4.1
"COC(=O)c1ccc(CN2CCC3=NN(c4ccc(F)c(C(F)(F)F)c4)C(=O)C3C2)cc1 (stereo not drawn) [ZM-3, Methyl 4-((2-(4-fluoro-3-(trifluoromethyl)phenyl)-3-oxo-3a,4,6,7-tetrahydro-2H-pyrazolo[4,3-c]pyridin-5(3H)-yl)methyl)benzoic acid]",–,9.8
CCNC(=O)c1ccc(CN2C=C3C(=O)N(c4ccc(F)c(C(F)(F)F)c4)N=C3CC2)cc1 [ZM-10],2.7,10
"Nc1ncnc2c1ncn2[C@@H]1O[C@H](COP(=O)(O)O)[C@@H](O)[C@H]1O [AMP, reference compound]",2.6,0.3
COc1cc(CNC(=O)c2ccc(CN3CCc4c(c(=O)n(-c5ccc(F)c(C(F)(F)F)c5)n4C)C3)cc2)ccc1OC(C)C [ZM-25],3.1,2.5
COC(=O)c1cccc(CN2CCC3=NN(c4ccc(F)c(C(F)(F)F)c4)C(=O)C3C2)c1 (stereo not drawn) [ZM-4],3.2,8.4
COc1ccc(CNC(=O)c2ccc(CN3CCc4c(c(=O)n(-c5ccc(F)c(C(F)(F)F)c5)n4C)C3)cc2)cc1OC [ZM-5],3.6,3.3
COc1ccc(CN(C)C(=O)c2ccc(CN3C=C4C(=O)N(c5ccc(F)c(C(F)(F)F)c5)N=C4CC3)cc2)cc1OC [ZM-6],3.0,1.1
COc1cccc(CNC(=O)c2ccc(CN3C=C4C(=O)N(c5ccc(F)c(C(F)(F)F)c5)N=C4CC3)cc2)c1 [ZM-9],2.8,5.3
CCOc1cc(CNC(=O)c2ccc(CN3C=C4C(=O)N(c5ccc(F)c(C(F)(F)F)c5)N=C4CC3)cc2)ccc1OC [ZM-22],2.9,6.7
COc1cc(CNC(=O)c2ccc(CN3C=C4C(=O)N(c5ccc(F)c(C(F)(F)F)c5)N=C4CC3)cc2)ccc1OC(C)C [ZM-29],2.9,9.7

# Test system: AMPK and ACC phosphorylation on HepG2 cells
# Assay: AMPK and ACC phosphorylation on HepG2 cells (western blot)
# Assay type: cell-based
# Details: different concentrations, FIG. 3
# Protocol: as §1, §2, §3, §4, §5, §6
SMILES,AMPK activation,phosphorylation of ACC
COc1ccc(CNC(=O)c2ccc(CN3C=C4C(=O)N(c5ccc(F)c(C(F)(F)F)c5)N=C4CC3)cc2)cc1OC [ZM-1],activate AMPK,upregulate phosphorylation of ACC in a concentration or gradient dependent manner
